The values that follow come from patent US6949648B2, “Condensed pyrazole derivatives, process for producing the same and use thereof” (Takeda Pharmaceutical Company Limited, priority 2000, dated 2005).

Molecules are shown by their SMILES. Structures can show the parent of a compound that is named as a salt.

One may read the melting point as the temperature, or range, at which the solid turns liquid. `Cc1nn(-c2ccccn2)c2nc3cc(Cl)c(Cl)cc3c(Cl)c12` [Example 2-75, 4,6,7-Trichloro-3-methyl-1-(2-pyridinyl)-1H-pyrazolo[3,4-b]quinoline] had a melting point of 213 to 214 °C.
To `Cc1nn(-c2ccccn2)c2c1c(=O)c1ccccc1n2C` [Example 2-14, 3,9-Dimethyl-1-(2-pyridinyl)-1,9-dihydro-4H-pyrazolo[3,4-b]quinolin-4-one] belongs 192 to 193 °C; to `Cc1nn(-c2ccccn2)c2nc3cc(F)c(Cl)cc3c(Cl)c12` [Example 2-98, 4,6-Dichloro-7-fluoro-3-methyl-1-(2-pyridinyl)-1H-pyrazolo[3,4-b]quinoline], 211 °C; to `Cc1cc(O)nc2c1c(C)nn2-c1ccccn1` [Example 1-23, 3,4-Dimethyl-1-(2-pyridinyl)-1H-pyrazolo[3,4-b]pyridin-6-ol], 254 to 255 °C.
Regarding `COc1cc2[nH]c3c(c(C)nn3-c3ccccn3)c(=O)c2cc1OC` [Example 2-48, 6,7-Dimethoxy-3-methyl-1-(2-pyridinyl)-1,9-dihydro-4H-pyrazolo[3,4-b]quinolin-4-one], the melting point was 238 to 239 °C.
To `O=c1c2cc(F)c(F)cc2[nH]c2c1cnn2-c1ccccn1` [Example 2-199, 6,7-Difluoro-1-(2-pyridinyl)-1,9-dihydro-4H-pyrazolo[3,4-b]quinolin-4-one] belongs greater than 300 °C.
To `O=c1c2cc(F)ccc2[nH]c2c1cnn2-c1ccccn1` (as salt: salt) [Example 2-165, 6-Fluoro-1-(2-pyridinyl)-1,9-dihydro-4H-pyrazolo[3,4-b]quinolin-4-one] belongs 263 to 266 °C.
Next, `CCc1nn(-c2ccccn2)c2[nH]c3cc(F)c(F)cc3c(=O)c12` [Example 2-201, 3-Ethyl-6,7-difluoro-1-(2-pyridinyl)-1,9-dihydro-4H-pyrazolo[3,4-b]quinolin-4-one]: 247 to 248 °C; `CCOc1c2ccccc2nc2c1c(C)nn2-c1ccccn1` [Example 2-16, 4-Ethoxy-3-methyl-1-(2-pyridinyl)-1H-pyrazolo[3,4-b]quinoline]: 121 to 123 °C; `Cc1nn(-c2ccccn2)c2[nH]c3cc(F)c(F)cc3c(=O)c12.O` (hydrate or solvate) [Example 2-92, 6,7-Difluoro-3-methyl-1-(2-pyridinyl)-1,9-dihydro-4H-pyrazolo[3,4-b]quinolin-4-one monohydrate]: 273 to 275 °C.
Molecule `Cc1nn(-c2ccccn2)c2[nH]c3ccc(C(=O)O)cc3c(=O)c12` [Example 2-65, 3-Methyl-4-oxo-1-(2-pyridinyl)-4,9-dihydro-1H-pyrazolo[3,4-b]quinoline-6-carboxylic acid] displayed a melting point greater than 300 °C.
Molecule `Cc1cccnc1-n1nc(C)c2c(=O)c3cccc(C)c3[nH]c21` (as salt: salt) [Example 2-135, 3,8-Dimethyl-1-(3-methyl-2-pyridinyl)-1,9-dihydro-4H-pyrazolo[3,4-b]quinolin-4-one] came in with a melting point of 193 to 195 °C.
To `Cc1nn(-c2ncccn2)c2nc3ccccc3c(Cl)c12` [Example 2-144, 4-Chloro-3-methyl-1-(2-pyrimidinyl)-1H-pyrazolo[3,4-b]quinoline] belongs 257 to 260 °C.
Consider `Cc1nn(-c2cccnc2)c2nc3ccccc3c(N)c12.Cl.Cl`, for which the melting point was in the range of 234 to 237 °C.
The molecule `Cc1cccnc1-n1nc(C)c2c(N)c3c(C)cccc3nc21` [Example 2-124, 3,5-Dimethyl-1-(3-methyl-2-pyridinyl)-1H-pyrazolo[3,4-b]quinolin-4-ylamine] showed a melting point of 271 to 274 °C.
Next, `Cc1cccnc1-n1nc(C)c2c(Cl)c3c(C)cccc3nc21` [Example 2-123, 4-Chloro-3,5-dimethyl-1-(3-methyl-2-pyridinyl)-1H-pyrazolo[3,4-b]quinoline]: 176 to 178 °C; `Cc1nn(-c2ccccn2)c2[nH]c3cc(N)ccc3c(=O)c12` [Example 2-59, 7-Amino-3-methyl-1-(2-pyridinyl)-1,9-dihydro-4H-pyrazolo[3,4-b]quinolin-4-one]: 284 to 286 °C.
Turning to `Cc1c(O)nc2c(c(C)nn2-c2ccccn2)c1C` [Example 1-24, 3,4,5-Trimethyl-1-(2-pyridinyl)-1H-pyrazolo[3,4-b]pyridin-6-ol], the melting point lay in the range of 226 to 228 °C.
`Cc1nn(-c2ccccn2)c2ncc(C(=O)NCc3ccccc3)c(O)c12` [Example 1-9, N-Benzyl-4-hydroxy-3-methyl-1-(2-pyridinyl)-1H-pyrazolo[3,4-b]pyridine-5-carboxamide]: the melting point is greater than 300 °C.
To `Cc1nn(-c2ccccn2)c2nc3ccccc3c(N)c12` [Example 1-35, 3-Methyl-1-(2-pyridinyl)-1H-pyrazolo[3,4-b]quinolin-4-ylamine] belongs 210 to 213 °C.
Next, `Cc1nn(Cc2ccccn2)c2nc3ccccc3c(N(C)C)c12` [Example 2-188, N,N-Dimethyl-N-[3-methyl-1-(2-pyridinylmethyl)-1H-pyrazolo[3,4-b]quinolin-4-yl]amine]: 166 to 168 °C.
Consider `CCOc1cccc(-n2nc(C)c3c(=O)c4c(C)cccc4[nH]c32)n1` [Example 2-122, 3,5-Dimethyl-1-(6-ethoxy-2-pyridinyl)-1,9-dihydro-4H-pyrazolo[3,4-b]quinolin-4-one], for which the melting point fell in the range of 213 to 215 °C.
Molecule `Cc1cccnc1-n1nc(C)c2c(=O)c3c(C)cccc3[nH]c21` [Example 2-125, 3,5-Dimethyl-1-(3-methyl-2-pyridinyl)-1,9-dihydro-4H-pyrazolo[3,4-b]quinolin-4-one] registered a melting point of 195 to 197 °C.
Regarding `Cc1nn(-c2ccccn2)c2nc3ccccc3c(OC3CCCCC3)c12` [Example 2-22, 4-Cyclohexyloxy-3-methyl-1-(2-pyridinyl)-1H-pyrazolo[3,4-b]quinoline], the melting point fell in the range of 88 to 91 °C.
As for `Cc1nn(-c2ccccn2)c2nc3ccccc3c(Cl)c12` [Example 1-34, 4-Chloro-3-methyl-1-(2-pyridinyl)-1H-pyrazolo[3,4-b]quinoline], the melting point fell in the range of 157 to 159 °C.
To `Cc1nn(-c2ncccn2)c2[nH]c3ccccc3c(=O)c12` [Example 2-146, 3-Methyl-1-(2-pyrimidinyl)-1,9-dihydro-4H-pyrazolo[3,4-b]quinolin-4-one] belongs 263 to 264 °C.
To `Cc1cccc2c(N)c3c(C)nn(-c4ccc5ccccc5n4)c3nc12` [Example 2-153, 3,8-Dimethyl-1-(2-quinolinyl)-1H-pyrazolo[3,4-b]quinolin-4-ylamine] belongs 273 to 276 °C; to `COc1ccc2nc3c(c(C)nn3-c3ccccn3)c(Cl)c2c1` [Example 2-41, 4-Chloro-6-methoxy-3-methyl-1-(2-pyridinyl)-1H-pyrazolo[3,4-b]quinoline], 186 to 187 °C.
Next, `Cc1nn(-c2ccccn2)c2ncc(C(=O)N3CCCCC3)c(O)c12` [Example 1-10, [4-Hydroxy-3-methyl-1-(2-pyridinyl)-1H-pyrazolo[3,4-b]pyridin-5-yl](1-piperidinyl)methanone]: 264 to 266 °C; `COC(=O)c1ccc2[nH]c3c(c(C)nn3-c3ccccn3)c(=O)c2c1` [Example 2-64, Methyl 3-methyl-4-oxo-1-(2-pyridinyl)-4,9-dihydro-1H-pyrazolo[3,4-b]quinoline-6-carboxylate]: 265 to 266 °C; `Cc1nc2c(c(C)nn2-c2ccccn2)c(O)c1Cc1ccccc1` [Example 1-20, 5-Benzyl-3,6-dimethyl-1-(2-pyridinyl)-1H-pyrazolo[3,4-b]pyridin-4-ol]: 181 to 182 °C.
In turn, `Cc1nn(-c2cccnc2)c2nc3ccccc3c(Cl)c12` [Example 2-136, 4-Chloro-3-methyl-1-(3-pyridinyl)-1H-pyrazolo[3,4-b]quinoline] had a melting point of 144 to 145 °C.
Next, `Cc1nn(-c2nccs2)c2nc3ccccc3c(Cl)c12` [Example 2-149, 4-Chloro-3-methyl-1-(1,3-thiazol-2-yl)-1H-pyrazolo[3,4-b]quinoline]: 208 to 209 °C; `Cc1cccnc1-n1nc(C)c2c(Cl)c3cccc(C)c3nc21` [Example 2-133, 4-Chloro-3,8-dimethyl-1-(3-methyl-2-pyridinyl)-1H-pyrazolo[3,4-b]quinoline]: 182 to 185 °C.
The molecule `Cc1nn(-c2ccccn2)c2nc3ccc(F)cc3c(Cl)c12` [Example 2-80, 4-Chloro-6-fluoro-3-methyl-1-(2-pyridinyl)-1H-pyrazolo[3,4-b]quinoline] gave a melting point of 185 to 187 °C.
To `COC(=O)c1ccc2c(Cl)c3c(C)nn(-c4ccccn4)c3nc2c1` [Example 2-66, Methyl 4-chloro-3-methyl-1-(2-pyridinyl)-1H-pyrazolo[3,4-b]quinoline-7-carboxylate] belongs 239 to 240 °C; to `Cc1nn(-c2cccnc2)c2[nH]c3ccccc3c(=O)c12` [Example 2-138, 3-Methyl-1-(3-pyridinyl)-1,9-dihydro-4H-pyrazolo[3,4-b]quinolin-4-one], 282 to 283 °C.
To `Cc1cccc(-n2nc(C)c3c(=O)c4cc(F)c(F)cc4[nH]c32)n1` [Example 2-209, 6,7-Difluoro-3-methyl-1-(6-methyl-2-pyridinyl)-1,9-dihydro-4H-pyrazolo[3,4-b]quinolin-4-one] belongs 301 to 302 °C.
As to `CCOC(=O)c1nn(-c2ccccn2)c2[nH]c3ccccc3c(=O)c12` [Example 2-180, Ethyl 4-oxo-1-(2-pyridinyl)-4,9-dihydro-1H-pyrazolo[3,4-b]quinoline-3-carboxylate], the melting point is 183 to 186 °C.
Consider `Cc1nn(-c2ccccn2)c2nc3cc([N+](=O)[O-])ccc3c(Cl)c12` [Example 2-57, 4-Chloro-3-methyl-7-nitro-1-(2-pyridinyl)-1H-pyrazolo[3,4-b]quinoline], for which the melting point lay within 226 to 227 °C.
To `Cc1nn(-c2ccccn2)c2[nH]c3c(F)cccc3c(=O)c12` [Example 2-85, 8-Fluoro-3-methyl-1-(2-pyridinyl)-1,9-dihydro-4H-pyrazolo[3,4-b]quinolin-4-one] belongs 241 °C.
